Four compounds from publication PMC13110267, “Fair and Square: Design, Synthesis and Biological Evaluations of Squaric Acid Derivatives as Novel HDAC8 Inhibitors” (Chemmedchem, 2026) can be followed below.

By IC50 is commonly meant the concentration that gives 50% inhibition.

Assay type in all cases: biochemical
One experiment concerns the target T1, HDAC8 (Homo sapiens, UniProt Q9BY41).
T1 construct: made in house
T1 sequence (Q9BY41 1-377): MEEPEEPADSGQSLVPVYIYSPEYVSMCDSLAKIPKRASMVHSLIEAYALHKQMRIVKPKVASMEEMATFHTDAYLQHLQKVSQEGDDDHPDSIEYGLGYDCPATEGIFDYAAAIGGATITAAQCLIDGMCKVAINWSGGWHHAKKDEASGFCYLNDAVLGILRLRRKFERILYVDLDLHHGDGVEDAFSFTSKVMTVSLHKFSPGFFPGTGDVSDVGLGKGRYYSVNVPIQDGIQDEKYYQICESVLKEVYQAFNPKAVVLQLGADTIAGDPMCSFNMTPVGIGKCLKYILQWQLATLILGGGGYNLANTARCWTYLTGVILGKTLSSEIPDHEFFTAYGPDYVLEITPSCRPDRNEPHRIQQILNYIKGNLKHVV
Put plainly: HDAC8 fluorometric enzyme inhibition assay, purified recombinant enzyme, 10-point dose-response. Conditions: for IC50: Table 1, purified recombinant HDAC8 10 nM, mean of three independent experiments, >35 µM = weak inhibitor; for IC50 (HDAC4)/IC50 (HDAC8): selectivity ratio HDAC8 over HDAC4. The method, then:
(§1) Therefore, the first stage of biological evaluation focused on determining inhibitory concentration (IC50) values of the squaric acid derivatives against HDAC8 and HDAC4 using purified recombinant enzymes. Enzymatic inhibition was quantified using 10‐point dose–response assays, from which IC50 values were calculated (Table 1). HDAC8 and HDAC4 were employed at concentrations of 10 nM and 1 nM, respectively, while other zinc‐dependent HDAC isoenzymes were used at approximate concentrations of ∼1 nM, reflecting the purity of the commercially available preparations. […]
(§2) 1.3.1 HDAC Assay General Inform ation
(§3) The activity of HDAC1, HDAC4, HDAC6, HDAC8, and HDAC11 was determined using a fluorometric assay in black half-area 96-well microplates (Greiner Bio -One , Germany). HDAC1 (#50051) and HDAC 6 (#50006) were purchased from BPS Bioscience.
(§4) HDAC4, HDAC8 and HDAC11 were produced in house as previously described.7- 9 The enzymes were pre-incubated with serial dilutions of the compounds for 1 hour at 30 °C in either assay buffer (25 mM Tris-HCl, 75 mM KCl and 0.001% (v/v) Pluronic F -127, pH 8.0) or MAL buffer (137 m M NaCl, 50 mM Tris-HCl, 2.7 mM KCl, 1 mM MgCl₂, 0 .5 mg/ml bovine serum albumin (BSA), pH 8.0b) for HDAC11. The enzyme reaction was initiated by the addition of the following substrates: 20 µM Boc-L ys(T FA) -AMC for HDAC4 and HDAC8; 80 µM Boc-L ys(T FA) -AMC for HDAC11; and 50 µM Boc -Lys(Ac)-AMC for HDAC1 and HDAC6. After an incubation period of 60 minutes, the reaction was terminated by the addition of 1.7 µM 9,9,9-trifluoro-8-oxo-N -phenyl -nonanamide (SATFMK) for […]
(§5) HDAC6, and 1 µM 1,1-dimethyl -2-[5-(trifluoromethyl)pyrazin-2-yl]isoindoline -4-carbohydroxamic acid (FT895) for HDAC11. The deacetylated substrate was then cleaved into fluorescent 7-amino -4- methylcoumarin (AMC) by the addition of 0.42 mg/mL trypsin.
(§6) Measurements were performed using a PHERAstar FS fluorescence microplate reader (BMG LABTECH) with excitation at 360 nm and emission at 460 nm. The normalised enzyme activities were plotted against the respective ligand concentration and fitted with a four-parameter logistic function using GraphPad Prism 6 software.

For a further experiment, the target named is T2, HDAC4 (Homo sapiens, UniProt P56524).
T2 construct: made in house
Nature of the experiment: HDAC4 fluorometric enzyme inhibition assay, purified recombinant enzyme, 10-point dose-response. Conditions: Table 1; purified recombinant HDAC4 1 nM; mean of three independent experiments; >35 µM = weak inhibitor. Here is the method:
as §1, §2, §3, §4, §5, §6

Another experiment has as its target T3, HDAC1 (Homo sapiens, UniProt Q13547).
T3 construct: purchased BPS Bioscience 50051
Nature of the experiment: HDAC1 fluorometric enzyme inhibition assay, purified enzyme. The note with it: Table 2; purified enzyme ~1 nM. The method, then:
as §1, §2, §3, §4, §5, §6

The target in the next experiment is T4, HDAC6 (Homo sapiens, UniProt Q9UBN7).
T4 construct: purchased BPS Bioscience 50006
T4 sequence (Q9UBN7 1-1215): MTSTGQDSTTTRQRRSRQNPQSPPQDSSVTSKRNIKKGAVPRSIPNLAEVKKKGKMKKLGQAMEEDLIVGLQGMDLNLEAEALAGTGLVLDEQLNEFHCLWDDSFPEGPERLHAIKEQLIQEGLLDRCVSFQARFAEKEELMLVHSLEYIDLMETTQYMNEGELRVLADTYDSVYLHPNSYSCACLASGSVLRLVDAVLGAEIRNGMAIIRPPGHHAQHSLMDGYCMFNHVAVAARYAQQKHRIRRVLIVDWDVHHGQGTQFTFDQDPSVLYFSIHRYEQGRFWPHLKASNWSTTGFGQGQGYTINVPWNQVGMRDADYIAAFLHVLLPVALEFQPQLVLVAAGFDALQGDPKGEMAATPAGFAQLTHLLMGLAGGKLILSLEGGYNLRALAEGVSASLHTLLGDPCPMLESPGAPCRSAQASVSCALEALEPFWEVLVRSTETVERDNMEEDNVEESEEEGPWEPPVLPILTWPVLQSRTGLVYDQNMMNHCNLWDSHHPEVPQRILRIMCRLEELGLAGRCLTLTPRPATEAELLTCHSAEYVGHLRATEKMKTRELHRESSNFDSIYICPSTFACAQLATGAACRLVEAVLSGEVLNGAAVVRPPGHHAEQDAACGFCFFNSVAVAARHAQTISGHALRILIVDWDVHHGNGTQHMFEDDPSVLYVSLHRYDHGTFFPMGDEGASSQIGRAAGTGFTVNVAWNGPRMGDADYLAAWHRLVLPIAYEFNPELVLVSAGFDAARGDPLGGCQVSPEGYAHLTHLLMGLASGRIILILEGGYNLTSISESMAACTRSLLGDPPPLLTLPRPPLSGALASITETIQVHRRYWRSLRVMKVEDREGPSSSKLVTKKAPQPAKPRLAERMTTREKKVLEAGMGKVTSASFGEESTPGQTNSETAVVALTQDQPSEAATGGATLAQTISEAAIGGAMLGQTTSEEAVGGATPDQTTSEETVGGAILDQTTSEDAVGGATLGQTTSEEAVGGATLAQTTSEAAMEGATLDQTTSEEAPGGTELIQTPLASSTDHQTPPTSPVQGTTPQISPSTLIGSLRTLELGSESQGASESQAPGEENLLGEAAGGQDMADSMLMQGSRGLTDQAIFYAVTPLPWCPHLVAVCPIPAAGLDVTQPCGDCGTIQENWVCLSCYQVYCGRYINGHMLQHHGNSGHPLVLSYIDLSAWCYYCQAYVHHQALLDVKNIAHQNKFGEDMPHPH
Nature of the experiment: HDAC6 fluorometric enzyme inhibition assay, purified enzyme. The note with it: Table 2; purified enzyme ~1 nM. The method, then: as §1, §2, §3, §4, §5, §6

For a further experiment, the target named is T5, HDAC11 (Homo sapiens, UniProt Q96DB2).
T5 construct: made in house
T5 sequence (Q96DB2 1-347): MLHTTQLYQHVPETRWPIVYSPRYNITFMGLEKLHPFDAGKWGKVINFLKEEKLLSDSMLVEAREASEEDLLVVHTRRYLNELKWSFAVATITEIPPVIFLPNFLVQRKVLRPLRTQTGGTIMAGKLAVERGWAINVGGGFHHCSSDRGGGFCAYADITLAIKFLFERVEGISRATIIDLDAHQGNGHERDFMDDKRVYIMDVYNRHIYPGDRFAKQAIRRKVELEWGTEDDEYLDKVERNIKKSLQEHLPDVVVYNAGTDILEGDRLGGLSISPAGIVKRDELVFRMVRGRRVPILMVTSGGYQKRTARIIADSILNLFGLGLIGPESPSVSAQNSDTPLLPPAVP
Put plainly: HDAC11 fluorometric enzyme inhibition assay, purified enzyme. The note with it: Table 2; purified enzyme ~1 nM. The method, then: as §1, §2, §3, §4, §5, §6

T3 sequence (Q13547 whole entry): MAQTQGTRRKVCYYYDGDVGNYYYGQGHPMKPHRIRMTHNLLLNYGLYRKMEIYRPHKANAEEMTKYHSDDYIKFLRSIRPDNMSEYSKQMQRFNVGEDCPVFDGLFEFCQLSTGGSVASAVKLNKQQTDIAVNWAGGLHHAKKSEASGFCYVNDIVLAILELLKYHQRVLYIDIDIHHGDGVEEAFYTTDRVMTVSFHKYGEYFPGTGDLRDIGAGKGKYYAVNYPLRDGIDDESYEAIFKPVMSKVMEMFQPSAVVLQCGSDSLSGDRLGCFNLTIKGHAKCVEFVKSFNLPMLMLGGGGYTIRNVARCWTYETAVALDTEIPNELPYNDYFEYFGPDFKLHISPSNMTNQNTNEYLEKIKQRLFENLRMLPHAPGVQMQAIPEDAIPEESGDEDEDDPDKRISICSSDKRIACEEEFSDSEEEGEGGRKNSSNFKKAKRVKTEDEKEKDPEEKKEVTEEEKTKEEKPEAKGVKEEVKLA
T2 sequence (P56524 whole entry): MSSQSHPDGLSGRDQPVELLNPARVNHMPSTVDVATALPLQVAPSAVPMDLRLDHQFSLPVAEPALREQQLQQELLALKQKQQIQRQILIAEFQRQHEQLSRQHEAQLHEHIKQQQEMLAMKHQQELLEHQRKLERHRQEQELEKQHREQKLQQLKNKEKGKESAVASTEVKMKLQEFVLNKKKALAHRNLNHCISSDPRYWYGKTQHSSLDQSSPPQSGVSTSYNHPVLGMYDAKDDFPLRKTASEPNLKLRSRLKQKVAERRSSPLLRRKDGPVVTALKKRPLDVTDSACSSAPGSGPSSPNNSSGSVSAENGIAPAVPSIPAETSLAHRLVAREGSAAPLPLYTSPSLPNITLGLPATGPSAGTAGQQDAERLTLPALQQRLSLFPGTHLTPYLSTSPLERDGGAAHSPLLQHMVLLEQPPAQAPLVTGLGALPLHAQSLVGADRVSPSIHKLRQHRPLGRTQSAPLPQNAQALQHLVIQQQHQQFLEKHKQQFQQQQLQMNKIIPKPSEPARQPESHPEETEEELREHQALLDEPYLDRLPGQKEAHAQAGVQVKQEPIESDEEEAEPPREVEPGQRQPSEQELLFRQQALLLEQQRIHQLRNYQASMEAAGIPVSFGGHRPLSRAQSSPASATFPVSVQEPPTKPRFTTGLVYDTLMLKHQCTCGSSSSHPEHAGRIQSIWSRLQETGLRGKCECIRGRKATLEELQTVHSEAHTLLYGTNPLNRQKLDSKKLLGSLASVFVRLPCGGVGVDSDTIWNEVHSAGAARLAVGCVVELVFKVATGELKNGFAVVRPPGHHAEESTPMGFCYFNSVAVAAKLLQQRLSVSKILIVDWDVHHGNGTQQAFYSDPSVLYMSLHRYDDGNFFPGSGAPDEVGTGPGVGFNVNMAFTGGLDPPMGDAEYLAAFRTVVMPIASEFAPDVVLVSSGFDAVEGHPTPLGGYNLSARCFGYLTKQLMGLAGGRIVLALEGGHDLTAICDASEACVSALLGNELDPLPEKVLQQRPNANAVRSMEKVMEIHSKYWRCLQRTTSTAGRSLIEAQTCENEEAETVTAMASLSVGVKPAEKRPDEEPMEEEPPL

For the compound `CCOc1c(Nc2ccc(F)cc2)c(=O)c1=O` [Compound 9b], the IC50 stood at 1.2 ± 0.03 µM on HDAC8; 8.5 ± 5.3 µM on HDAC4; 7 ± 2.7 µM on HDAC1; 2.3 ± 1.6 µM on HDAC6; 25 ± 8 µM on HDAC11. In addition, the “IC50 (HDAC4)/IC50 (HDAC8)” value on HDAC8 was 7.1.

In the case of `O=c1c(NCc2ccccc2)c(NCc2ccccc2)c1=O` [Compound 13b], the IC50 on HDAC8 is 1.8 ± 0.7 µM; at HDAC4 it was 4.6 ± 0.9 µM; at HDAC1, 8.3 ± 3.6 µM; at HDAC6 it was 6.1 ± 3.5 µM; against HDAC11, > 35 µM. Also, the “IC50 (HDAC4)/IC50 (HDAC8)” value at HDAC8 turned out to be 2.6.

On to `O=c1c(Nc2ccc(Br)cc2)c(Nc2ccc(Br)cc2)c1=O` [Compound 13c], for which the IC50 on HDAC8 is 2 ± 1 µM; on HDAC4, 11 ± 4 µM; on HDAC1 it was 8.1 ± 4.3 µM; against HDAC6, 2.9 ± 1.3 µM; against HDAC11, > 35 µM. Moreover, at HDAC8, the “IC50 (HDAC4)/IC50 (HDAC8)” value is on record as 5.5.

For the compound `CN(Cc1ccccc1)c1c(N(C)Cc2ccccc2)c(=O)c1=O` [Compound 14b], the IC50 is 1.3 ± 0.2 µM on HDAC8; 14 ± 3 µM on HDAC4; 17 ± 16 µM against HDAC1; 6.9 ± 2.5 µM against HDAC6; > 35 µM at HDAC11. Besides, at HDAC8, the “IC50 (HDAC4)/IC50 (HDAC8)” value was determined as 10.8.
